Laboratory results as given in US20260183393A1, “IMMUNOSUPPRESSANT-RESISTANT MODIFIED ALLOGENEIC MODIFIED IMMUNE CELLS AND METHODS FOR USE THEREOF” (Beam Therapeutics Inc., priority 2023, published 2026).

How the values were obtained:
endogenous NK cells = test: IL-15 treatment of HIS mice, elimination of HLA-deficient T cells; format: in vivo, BLT mice; settings: 2.5 mg every 2-3 days, 6 total injections
Excerpt: FIGS. 20A to 20E provide plots, a schematic diagram, and a flow cytometry scatter plot showing human immune system (HIS) mice under-reconstituted human NK cells and necessitated IL-15 treatment to eliminate HLA-deficient T cells. FIG. 20A provides a plot showing frequency of human CD56^+ NK cells of CD45^+ cells in PBMCs from human donors (n=10), BLT-NSG mice (Cohort A, n=18; Cohort B, n=15; Cohort C, n=18) and huCD34^+ NCG mice (Cohort D, n=17; Cohort E, n=12; Cohort F, n=24; Cohort G, n=12). FIGS. 20B to 20E relate to an experiment where HIS mice were treated every 2-3 days with recombinant human IL-15 (2.5 mg) or PBS for 6 total injections. Mice were then coinfused 1:1 ratio with allogeneic CD4-based CAR-T cells that were base-edited for TCRKO (HLA+) or TCRKOb2MKOCIITAKO (HLA−). […] Statistical significance was calculated by Wilcoxon matched-pairs signed rank test (FIG. 20E).
For the study described in FIGS. 20A to 20E, BLT mice received intraperitoneal injections every 2-3 days of 2.5 mg recombinant human IL-15 (BioLegend; n=6) or sterile PBS (n=3) for 6 total injections. […] Persistence of 4CAR-T cells was monitored at 1-, 4- and 7-days post-T cell infusion via blood draw from the retro-orbital sinus. […] Persistence of 4CAR-T cells was monitored at 1-day post-T cell infusion and weekly thereafter via blood draw from submandibular vein.

19CAR-T cells [1] = test: CAR-T cell cytokine production assay; format: cell-based, human; settings: corticosteroid treatment; JeKo-1 stimulation; IFNg and TNFa
Procedure: (§1) 10. Monensin and Brefeldin A were added to the cell cultures to inhibit protein secretion for the duration of the stimulation. After the 6 hours, the cells were stained with reagents against 19CAR, CD4, CD8, IFNg, and TNFa, and the cells were also stained using a viability stain. Fluorescence activated cell sorting (FACS) was then used to measure intracellular levels of IFNg (y-axis) and TNFa (x-axis) in CD4^+ 19CAR-T cells. In FIG. 10, the numbers in each quadrant of each contour plot represent the percent of total cells counted that fell within the quadrant.
as §1, with “CD8^+” for “CD4^+”
The following day, T cells were washed, counted and 1×10^5 cells were seeded in duplicate into a 96-well flat bottom plate alone or with 2×10^5 JeKo-1.GFP^+ tumor cells. […] Cells were incubated for 6 hours total before analysis by flow cytometry.

19CAR-T cells [2] = test: CAR-T cell proliferation assay; format: cell-based, human; settings: corticosteroid treatment; JeKo-1 stimulation
Excerpt: Primary human T cells were activated using an anti-CD3/CD28/CD2 reagent. Two-days after being contacted with the reagent, the T cells were edited using a base editor system containing the guide polynucleotide TSBT×1538 and the base editor ABE8.20m using electroporation, as described above. Following electroporation, both the T cells were transduced with a lentiviral vector encoding an anti-CD19 CAR (19CAR) and allowed to expand in culture for approximately 7 days before being cryopreserved for later analysis. Unedited anti-CD19 CAR-T cells were prepared as a negative control. The 19CAR-T cells were then thawed from cryopreservation and rested overnight before being stimulated using dynabeads coated with recombinant human CD19 protein-coated at a bead-to-cell ratio of 1:1. The T cells were cultured in the presence of 100 nM of the immunosuppressant rapamycin or dimethylsulfoxide (DMSO) as a control for 6 days. The total number of T cells were enumerated using a NucleoCounter NC-200™ automated cell counter.
Primary human T cells were activated using an anti-CD3/CD28/CD2 reagent. Two days after being contacted with the reagent, the T cells were edited using a base editor system containing the guide polynucleotide TSBT×1538 and the base editor ABE8.20m using the electroporation protocol described above. Both edited and unedited T cells were transduced with a lentiviral vector encoding an anti-CD19 CAR (19CAR) and allowed to expand in culture for approximately 7 days before being cryopreserved for later analysis. Unedited 19CAR-T cells were used as a control. For analysis, the 19CAR-T cells were thawed and rested for 72 hours before labeling using a CellTrace™ Far Red (CTFR) dye. After CTFR labeling, the 19CAR-T cells were stimulated using an Immunocult™ Human CD3/CD28/CD2 universal T cell activator in the presence of 100 nM of the immunosuppressant agent rapamycin or in the presence of DMSO (control) and allowed to incubate for an additional 3 days. Following the three-day incubation, the T cells were analyzed using flow cytometry to measure dilution of CTFR dye as an indicator of cell proliferation.
The following day, T cells were washed, counted and 1×10^4 cells were seeded in triplicate into a 96-well flat bottom plate alone or with 1×10^4 JeKo-1.GFP^+ tumor cells. […] On day 7, samples were analyzed by flow cytometry and 19CAR-T cells were enumerated using CountBright Counting Beads (Thermo Fisher Scientific) following the manufacturer's protocol.

donor T cells = settings: 10 nM dose of AP1903; cells expressing iCasp9; cited from earlier work
PPIA protein = test: Flow cytometry of PPIA protein in edited T cells; format: cell-based, human; settings: T cells edited with ABE8.20m and the guide, five days
Excerpt: FIG. 7 provides a set of overlaid flow cytometry histograms confirming knock-out of PPIA protein expression in primary human T cells edited using base editor systems containing
ABE8.20m and the guide polynucleotide TSBT×6143 or TSBT×6146 (see Table 1 for nucleotide sequences). Five days following being contacted with the base editor systems, the T cells were stained using LIVE/DEAD™ Fixable Near-Infra Red (NIR) stain (Thermo). The cells were then fixed and permeabilized followed by immunostaining using a primary antibody targeting PPIA (polyclonal Cyclophilin A Antibody from ProteinTech; 10720-1-AP). The cells were then contacted with a secondary antibody (polyclonal Goat anti-Rabbit IgG (H+L) Cross-Adsorbed Secondary Antibody labeled using Alexa Fluor™ 488 and available from Invitrogen; A-11008) and analyzed using flow cytometry. Unedited cells and isotype control antibody stained cells were used as controls representing high and low levels of PPIA protein, respectively. The x-axis of FIG. 7 indicates the level of PPIA protein measured. In FIG. 7, the y-axis represents cell counts normalized to the mode cell count measured for PPIA expression levels in a sample (i.e., the most frequently counted expression level was set to have a total cell count value (y-axis value) equal to 100).

Row | Molecule | cytokine production of FKBP1A^KO 19CAR-T cells (19CAR-T cells [1]) | antigen-driven proliferation of FKBP1A^KO 19CAR-T cells (19CAR-T cells [2]) | PPIA expression (PPIA protein) | other results
1 | recombinant human IL-15: recombinant human IL-15 (BioLegend) | – | – | – | priming of endogenous NK cells against b2M^KO T cells (endogenous NK cells): prime endogenous NK cells against b2M^KO T cells in vivo
2 | C[C@]12C=CC(=O)C=C1CC[C@@H]1[C@@H]2C(=O)C[C@@]2(C)[C@H]1CC[C@]2(O)C(=O)CO [prednisone, Prednisone] | suppressed | suppressed | – | –
3 | C[C@@H]1C[C@H]2[C@@H]3CCC4=CC(=O)C=C[C@]4(C)[C@@]3(F)[C@@H](O)C[C@]2(C)[C@@]1(O)C(=O)CO [dexamethasone, Dexamethasone] | suppressed | suppressed | – | –
4 | CC[C@H](C(=O)N1CCCC[C@H]1C(=O)O[C@H](CCc1ccc(OC)c(OC)c1)c1cccc(OCC(=O)NCCNC(=O)COc2cccc([C@@H](CCc3ccc(OC)c(OC)c3)OC(=O)[C@@H]3CCCCN3C(=O)[C@@H](CC)c3cc(OC)c(OC)c(OC)c3)c2)c1)c1cc(OC)c(OC)c(OC)c1 [AP1903] | – | – | – | apoptosis of donor T cells (donor T cells): approximately 99%
5 | TSBT×6143: guide polynucleotide targeting PPIA (nucleic acid, chemistry not given here, guide polynucleotide targeting PPIA) guide: GCCCGACCTCAAAGGAGACGGTTTTAGAGCTAGAAATAGCAAGTTAAAATAAGGCTAGTCCGTTATCAACTTGAAAAAGTGGCACCGAGTCGGTGCTTTT | – | – | Knock-out of PPIA expression | –
6 | TSBT×6146: guide polynucleotide targeting PPIA (nucleic acid, chemistry not given here, guide polynucleotide targeting PPIA) guide: CGTACCTGACACATAAACCCGTTTTAGAGCTAGAAATAGCAAGTTAAAATAAGGCTAGTCCGTTATCAACTTGAAAAAGTGGCACCGAGTCGGTGCTTTT | – | – | Knock-out of PPIA expression | –
